pIC50: −log10 of the molar value. Where two headings read alike, the source gives them in different places.

One data set deals with Neuro2A cells. The class given is cell-based. The conditions noted are these: for cell death at the concentrations used: Dynasore 30 μg/ml, Filipin III 5 μg/ml, Rottlerin […]; for uptake of polyplex: inhibitor 45 min prior transfection, LPEI/pDNA N/P=20, 4 h. Here is the method: A. Native and differentiated (10 μM RA) Neuro2a was treated with 2.5 μg/ml rottlerin, 5 μg/ml Filipin III or 30 μg/ml Dynasore for 45 min prior transfection. DMSO/0.5% FBS was used as control for treatment. After transfection with polyplex (N/P=20), cells were incubated at 4° C. or 37° C. for 4 h. Extracellular pDNA was removed by pAA/DNAse and cells were trypsinized. Then, samples were treated with pAA/urea lysis buffer and the absolute copy number of pDNA was quantified by qPCR. In similar experiments, native Neuro2A cells were incubated at 37° C. for 24 h post transfection. B. Representative fluorescent images (bottom rows), acquired 48 h post transfection. C. Percentage of cells expressing EGFP was counted. Significant differences in transfection efficiencies were calculated using the two tailed student's t-test. The data shown were the mean±s.e.m., n=4. *, p<0.05; **, p<0.005.
For studies using inhibitors, cells were incubated with Dynasore (30 μg/ml), Filipin III (5 μg/ml) or Rottlerin (2.5 μg/ml) in DMEM (0.5% FBS) for 45 min prior transfection. Cells were further incubated in DMEM (0.5% FBS) containing corresponding inhibitors post transfection.
To quantify DNA internalized by the cells, the supernatant was removed and the cells were washed once with 1×PBS and incubated in DMEM containing pAA/DNAse for 2 h at 4° C. Next, the cells were trypsinized and treated with pAA/urea lysis buffer. Efficiency of DNA release by pAA/urea lysis buffer and pAA/DNase was evaluated (Supplementary FIGS. 15 & 18). […] Primers specific for EGFP, forward primer (5′-3′, […]; SEQ ID NO:1) and reverse primer (5′-3′, […]; SEQ ID NO:2) were used. PCR quantification of the pDNA was performed as previously described (Yoong, L.F., G. Wan, and H.P. Too. Mol Cell Neurosci, 2009. 41(4): p. 464-73). The absolute amount of pDNA was determined using plasmid standards by interpolation.

In data set [1] the test system is differentiated Neuro2A cells. Kind of data set: Transfection efficiency (EGFP positive cells) of differentiated Neuro2A. The conditions noted are these: LPEI/pDNA N/P=20; chloroquine 25 or 100 μM, PLUS 10 or 20 μL, INF7 10 or 20 μg; 48 h. The class given is cell-based.
The next data set concerns the target T1, HDAC6 (Homo sapiens, UniProt Q9UBN7).
T1 sequence (Q9UBN7 1-1215): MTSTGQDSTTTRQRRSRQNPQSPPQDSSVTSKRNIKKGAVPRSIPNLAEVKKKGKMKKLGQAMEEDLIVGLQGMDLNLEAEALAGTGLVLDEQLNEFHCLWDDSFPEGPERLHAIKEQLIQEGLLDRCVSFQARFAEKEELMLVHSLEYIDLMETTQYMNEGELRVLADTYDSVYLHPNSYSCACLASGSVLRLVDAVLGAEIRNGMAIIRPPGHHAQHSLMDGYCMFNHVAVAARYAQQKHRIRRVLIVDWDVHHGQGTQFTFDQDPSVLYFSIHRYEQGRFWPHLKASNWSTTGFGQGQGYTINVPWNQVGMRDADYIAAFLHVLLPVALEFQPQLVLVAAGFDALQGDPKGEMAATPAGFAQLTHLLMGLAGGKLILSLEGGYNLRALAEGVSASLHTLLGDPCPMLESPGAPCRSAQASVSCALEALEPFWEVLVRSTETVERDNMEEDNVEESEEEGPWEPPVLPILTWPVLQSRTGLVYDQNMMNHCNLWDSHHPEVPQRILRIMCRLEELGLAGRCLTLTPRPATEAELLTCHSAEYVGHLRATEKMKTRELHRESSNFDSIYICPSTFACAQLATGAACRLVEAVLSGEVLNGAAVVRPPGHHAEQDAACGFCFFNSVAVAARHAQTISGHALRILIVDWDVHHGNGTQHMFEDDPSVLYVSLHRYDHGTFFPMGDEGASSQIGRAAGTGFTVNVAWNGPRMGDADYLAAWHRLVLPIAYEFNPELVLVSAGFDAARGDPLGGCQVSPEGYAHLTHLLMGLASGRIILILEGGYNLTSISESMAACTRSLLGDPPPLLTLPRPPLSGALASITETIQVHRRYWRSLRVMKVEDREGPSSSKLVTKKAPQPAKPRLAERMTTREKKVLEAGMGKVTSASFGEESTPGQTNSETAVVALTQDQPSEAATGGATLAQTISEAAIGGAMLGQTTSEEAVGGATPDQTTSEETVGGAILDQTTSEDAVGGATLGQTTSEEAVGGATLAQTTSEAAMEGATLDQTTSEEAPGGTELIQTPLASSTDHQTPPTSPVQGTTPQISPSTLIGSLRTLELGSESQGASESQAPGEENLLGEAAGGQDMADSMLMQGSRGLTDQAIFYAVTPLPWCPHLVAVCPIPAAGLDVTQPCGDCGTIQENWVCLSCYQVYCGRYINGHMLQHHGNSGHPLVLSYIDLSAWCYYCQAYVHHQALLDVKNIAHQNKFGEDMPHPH
The note with it: Targeted HDAC/Sirtuin: 6; cited from earlier work.

In the next data set the target is HDAC1 (Homo sapiens, UniProt Q13547). The conditions noted are these: Targeted HDAC/Sirtuin: 1; cited from earlier work.
A further data set addresses HDAC3 (Homo sapiens, UniProt O15379). The conditions noted are these: Targeted HDAC/Sirtuin: 3; cited from earlier work.
Another data set relates to acetylated α-tubulin. Kind of data set: Tubulin acetylation immunostaining. The class given is cell-based. The conditions noted are these: for tubulin acetylation: differentiated Neuro2A, 2 h, Tubastatin A 10 μM, TSA 50 nM, Paclitaxel 25 nM, SAHA 5 μM, Entinostat 10 μM, Tacedinaline 50 μM. How it is done: Then, cells were fixed with 4% formaldehyde and co-stained for acetylated α-tubulin and β-tubulin. Confocal images of the individual and merged channels are shown. Bar represents 20 μm. Further, a table is presented, showing the reagents and their respective targets, as well as the concentration at which the experiment was done.
FIG. 35 depicts micrographs showing the transient effect of Tubastatin A on tubulin acetylation. Neuro2a cells were treated with Tubastatin A (10 μM) for 12 hours. Then, chemicals were removed by replacement with complete media and cells were further incubated for 48 h. At various time points, cells were fixed with 4% formaldehyde and stained for acetylated α-tubulin (Green) and nucleus (Hoechst stain, Blue). Representative images were shown. Bar represents 20 μm.
Control and 10 μM differentiated Neuro2a Cells were fixed with 4% formaldehyde in 1×PBS for 20 min at room temperature and subsequently permeabilized in 0.5% Triton-X100 in 1×PBS. Then, the samples fixed cells were blocked with normal goat serum (1:10; Dako, Glostrup, Denmark) in 0.1% Triton X-100/1×PBS for 30 min at 37° C. The cells were then incubated with primary antibodies against acetylated α-Tubulin (Sigma Aldrich T7451, 1:200 dilution) or TuJ (R&D Systems MAB1195, 1:50 dilution) in 0.1% TritonX-100/1% BSA/1×PBS at 37° C. for 2 h and washed three times in 1×PBS. […] The cells were washed three times in 1×PBS and mounted. Image acquisition was performed using the Zeiss LSM710 with Axio Observer.Z1 confocal microscope system (Oberkochen, Germany). All images were taken with identical laser and optical settings.

The subject of data set [2] is human fetal MSC cells. Kind of data set: GFP transfection of human fetal MSC. In kind it is cell-based. The note with it: PEIMAX/PMAXGFP N/P=10; 100 nM Trichostatin A. Here is the method: Next, cells were harvested and GFP expressions were analysed by FACS analysis. Graph represents % of GFP+ cells. Error bar represents the standard error mean (S.E.M.) of n=3. Statistical significance of transfection efficiencies between cells exposed to polyplexes only and other conditions were obtained using two tailed student's t-test; *, p<0.01. Representative images of the transfected cells of each condition are presented.
Human fetal MSC cells were transfected with PEIMAX/PMAXGFP complex at N/P=10. […] Three days after transfection, media was replaced with fresh culture media. Bright field and fluorescent images were taken at Day 2, 7, 14 and 21 days post transfection. Representative imaged are presented.

Another data set concerns PC3 cells. Put plainly: GFP transfection of PC3 cells (FACS). In kind it is cell-based, human. The conditions noted are these: PEIMAX/PMAXGFP N/P=20. How it is done: Next, cells were harvested and GFP expression was analysed by FACS analysis. […] Representative images of the FACS analysis and transfected cells of each condition are presented. Error bar represents the standard error mean (S.E.M.) of n=3.

Data set [3] deals with U251MG cells. Put plainly: GFP transfection of U251MG cells (FACS). The conditions noted are these: PEIMAX/PMAXGFP N/P=10; 10 μM Tubastatin A, 5 μM SAHA. The class given is cell-based. How it is done: Furthermore, representative images of the FACS analysis and transfected cells for each conditions are presented. Error bar represents the standard error mean (S.E.M.) of n=3. […] Next, cells were harvested and GFP expressions were analysed by FACS analysis.

Data set [4] has as its system U251MG cells. Kind of data set: Viable cell number after p53 transfection with transfection enhancers. In kind it is cell-based. The conditions noted are these: for cell death / cell number with p53 transfection: pEGFP-N1-p53, 10 μM Tubastatin A, 5 μM SAHA.
Data set [5] concerns human fetal MSC cells. Put plainly: BMP2 expression in human MSC (qPCR). The conditions noted are these: PEIMAX/PMAXGFP-BMP2 N/P=10; 3 day post transfection; 5 μM Tubastatin A, 150 nM TSA. The class given is cell-based. In general terms: Real-time PCR tracks product formation cycle by cycle.
The next data set concerns MICA and NKG2D. Kind of data set: MICA and NKG2D expression in PC3 cells (PCR). In kind it is cell-based, human. The note with it: 5 μM SAHA, up to 48 hours. Here is the method:
At the end of the incubation, the cells were collected and subjected to PCR analysis. […] The histogram here represented fold change to control after normalization with GAPDH.

The mark [6] stands for this setting: differentiated (10 μM RA) Neuro2A.

Chain of HDAC1 (Q13547 whole entry, species assumed): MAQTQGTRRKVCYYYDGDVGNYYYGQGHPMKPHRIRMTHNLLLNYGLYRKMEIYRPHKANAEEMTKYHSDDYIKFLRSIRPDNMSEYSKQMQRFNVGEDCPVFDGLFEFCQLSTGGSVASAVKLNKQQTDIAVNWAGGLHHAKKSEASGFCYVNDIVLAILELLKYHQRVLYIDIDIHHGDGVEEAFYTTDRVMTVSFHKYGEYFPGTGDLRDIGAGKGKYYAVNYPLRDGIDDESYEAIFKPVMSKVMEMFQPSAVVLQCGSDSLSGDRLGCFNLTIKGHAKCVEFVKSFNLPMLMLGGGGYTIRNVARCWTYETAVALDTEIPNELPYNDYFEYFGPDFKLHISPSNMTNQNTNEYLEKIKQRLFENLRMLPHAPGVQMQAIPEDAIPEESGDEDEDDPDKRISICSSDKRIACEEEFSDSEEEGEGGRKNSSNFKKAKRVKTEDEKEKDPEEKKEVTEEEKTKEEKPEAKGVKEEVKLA
Chain of HDAC3 (O15379 whole entry): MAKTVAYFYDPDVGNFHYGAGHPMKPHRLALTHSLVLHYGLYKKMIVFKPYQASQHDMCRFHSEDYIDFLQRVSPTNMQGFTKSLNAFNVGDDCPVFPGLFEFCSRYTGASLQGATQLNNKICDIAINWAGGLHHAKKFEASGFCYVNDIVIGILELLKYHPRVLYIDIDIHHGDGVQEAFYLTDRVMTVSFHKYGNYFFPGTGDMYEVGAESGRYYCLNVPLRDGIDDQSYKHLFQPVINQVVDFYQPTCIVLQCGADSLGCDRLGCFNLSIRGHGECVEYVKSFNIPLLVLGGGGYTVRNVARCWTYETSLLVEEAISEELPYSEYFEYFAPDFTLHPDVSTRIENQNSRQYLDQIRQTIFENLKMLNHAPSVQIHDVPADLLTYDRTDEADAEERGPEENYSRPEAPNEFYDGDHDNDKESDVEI
Chain of HDAC3 (Q9Y618 395-489 partner limits assumed): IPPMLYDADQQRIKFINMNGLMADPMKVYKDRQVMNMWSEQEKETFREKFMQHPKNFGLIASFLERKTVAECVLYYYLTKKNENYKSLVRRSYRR

For `CC(=O)c1c(O)c(C)c(O)c(Cc2c(O)c3c(c(C(=O)/C=C/c4ccccc4)c2O)OC(C)(C)C=C3)c1O` [Rottlerin], the “cell death at the concentrations used” value with Neuro2A cells was “no evidence of cell death”. Further, the uptake of polyplex entry in the data set with Neuro2A cells (setting [6]) was “not in differentiated cells”; in the data set on Neuro2A cells (native Neuro2A), “reduced the uptake of polyplex significantly”.
As for `CCN(CC)CCCC(C)Nc1ccnc2cc(Cl)ccc12` (stereo not shown) [chloroquine], in [1], the “enhancement of transfection, reagent added post-transfection” value was “did not show cumulative enhancement of transfection”.
One may read the pIC50 as the negative decadic logarithm of the IC50, by convention in mol/L. In the case of `O=C(/C=C/c1cccc(S(=O)(=O)Nc2ccccc2)c1)NO` [Belinostat], the pIC50 at HDAC6 was 6.39.
Regarding `C/C=C1\NC(=O)[C@H]2CSSCC/C=C/[C@H](CC(=O)N[C@H](C(C)C)C(=O)N2)OC(=O)[C@H](C(C)C)NC1=O` [Romidepsin], the pIC50 on HDAC1 is 7.10.
For `O=C(N/N=C/c1ccc(O)c(O)c1)c1cc2ccccc2cc1O` [Dynasore], the uptake of polyplex result with Neuro2A cells (setting [6]) and in the data set on Neuro2A cells (native Neuro2A) was “significantly inhibited the uptake of polyplex” each time.
As to MC-1293, the pIC50 at HDAC3 was 3.54.
On to `Nc1ccccc1NC(=O)c1ccc(CNC(=O)OCc2cccnc2)cc1` [Entinostat], for which the tubulin acetylation entry with acetylated α-tubulin is reported as “not”.
For the molecule `CC(/C=C/C(=O)NO)=C\[C@@H](C)C(=O)c1ccc(N(C)C)cc1` [Trichostatin A], in the data set on acetylated α-tubulin, the tubulin acetylation result is given as “markedly enhanced tubulin acetylation”. Moreover, the enhancement of transfection entry with human fetal MSC cells [2] and in the data set on PC3 cells was “significant enhancement of transfection” in each case.
For the molecule `CC(=O)O[C@H]1C(=O)[C@@]2(C)[C@H]([C@H](OC(=O)c3ccccc3)[C@]3(O)C[C@H](OC(=O)[C@H](O)[C@@H](NC(=O)c4ccccc4)c4ccccc4)C(C)=C1C3(C)C)[C@]1(OC(C)=O)CO[C@@H]1C[C@@H]2O` [paclitaxel], in the data set on acetylated α-tubulin, the tubulin acetylation result is “markedly enhanced tubulin acetylation”.
On to `CN1CCc2c(c3ccccc3n2Cc2ccc(C(=O)NO)cc2)C1` [Tubastatin A], for which the “duration of effect on tubulin acetylation” value with acetylated α-tubulin (Neuro2a, Tubastatin A 10 μM for 12 hours then washout) was less than 24 h. In the data set with acetylated α-tubulin, the tubulin acetylation entry is listed as “markedly enhanced tubulin acetylation”. In addition, the transfection efficiency entry in the data set on U251MG cells [3] is given as “significant enhancement in transfection efficiency”. Also, the “cell death / cell number with p53 transfection” value with U251MG cells [4] was “did not result in greater reduction of cell number”. Also, the “BMP2 expression, fold over the negative control” value in the data set on human fetal MSC cells [5] was ~20,000 fold. Besides, the enhancement of transfection result in the data set with PC3 cells is “significant enhancement of transfection”.
Take `O=C(CCCCCCC(=O)Nc1ccccc1)NO` [SAHA, vorinostat]: in the data set with acetylated α-tubulin, the tubulin acetylation result is recorded as “markedly enhanced tubulin acetylation”. The “cell number on increasing duration of incubation with SAHA” value in the data set on U251MG cells [4] (p53, DOPE/CHEMS, 5 μM SAHA for 48, 72 and 96 h) is “did not further reduce the cell number”. Also, the “cell death / cell number with p53 transfection” value in the data set with U251MG cells [4] is reported as “resulted in more cell death”. Further, in the data set with MICA and NKG2D, the “expression of MICA and NKG2D” value is “induced up-regulation of MICA and NKG2D”.
Consider `CC(=O)Nc1ccc(C(=O)Nc2ccccc2N)cc1` [Tacedinaline], for which the tubulin acetylation entry in the data set on acetylated α-tubulin is listed as “not”.
In the case of `CCCCC[C@@H](O)[C@H]1C(=O)O[C@H](C)[C@@H](O)/C=C/C=C/C=C/C=C/C=C(\C)[C@@H](O)C[C@H](O)C[C@H](O)C[C@H](O)C[C@H](O)C[C@H](O)C[C@@H]1O` [Filipin III], the “cell death at the concentrations used” value in the data set on Neuro2A cells is given as “no evidence of cell death”. Moreover, the uptake of polyplex entry with Neuro2A cells (setting [6]) and in the data set on Neuro2A cells (native Neuro2A) was “did not affect polyplex uptake” throughout.

(Values after patent publication US10100331B2, “Reagent for gene-drug therapeutics” (Agency for Science, Technology and Research, priority 2012, dated 2018).)
